From article PMC11941704 (Current Issues in Molecular Biology, 2025)
Several values for one entry are separate records, joined by “and”; a condition that tells them apart may be missing. Equal entries are not always repeated. Where two headings read alike, the source gives them in different places.

Key:
[1] = system: C. perfringens neuraminidase; type: biochemical, Clostridium perfringens; conditions: for IC50: read-out: IC50 Value C. perfringen Neuraminidase
[2] = biological target: T1, SARS-CoV-2 main protease (Severe acute respiratory syndrome coronavirus 2, UniProt P0DTD1); assay: biochemical; type: biochemical; conditions: for IC50: IC50 Value SARS-CoV-2 Main Protease
[3] = system: SARS-CoV-2 spike protein–human ACE2 interaction; type: binding, SARS-CoV-2 / human
[4] = biological target: T1, SARS-CoV-2 main protease; conditions: read-out: IC50 Value SARS-CoV-2 Main Protease; cited from earlier work

Row | SMILES | Potency Index*, bacterial neuraminidase, compared to std influenza A [1] | Potency Index, bacterial (C. perfringens) neuraminidase [1] | IC50 [1] | Potency Index, SARS-CoV-2 main protease [2] | inhibition at 100 µg/mL [2] [%] | % Inhibition SARS-CoV-2 Spike Protein–Human ACE2 Interaction [3] | Potency Index, SARS-CoV-2 spike protein [3] | Ratio, SARS-CoV2 spike protein [3] | IC50 [4] [µM] | IC50 [2] [µM] | % Inhibition C. perfringen Neuraminidase [1]
1 | CCCCCc1cc(O)c2c(c1)OC(C)(CCC=C(C)C)C=C2 (centres unmarked) [CBC, cannabichromene] | 56.89 | 5.18 | 56.9 µM | 100 | 75 | 95.25 (± 4.54) % | 4.99 | 1.05 |  |  | 
2 | C=C(C)[C@@H]1CCC(C)=C[C@H]1c1c(O)cc(CCCCC)cc1O [CBD, cannabidiol, reference compound] | 4.53 | 0.41 | 4.5 µM and 4.53 µM | 4.43 |  |  | 77.62 | 1.78 | 1.86 |  | 
3 | C=C(C)C1CCC(C)(O)C2Oc3cc(CCCCC)cc(O)c3C12 (centres unmarked) [CBE, cannabielsoin] |  |  |  | 100 | 80.3 |  | 35.75 | 1.36 |  |  | 
4 | CCCCCc1cc(O)c2c(c1)oc1c(C)ccc(C(C)C)c12 [CBF, cannabifuran] |  |  |  | 100 | 65.3 | 99.22 (± 1.36) % |  | 1.01 |  |  | 
5 | CCCCCc1cc(O)c(C/C=C(\C)CCC=C(C)C)c(O)c1 [CBG, cannabigerol] | 6.92 | 0.63 | 6.9 µM and 6.92 µM |  | > 80 | 97.60 (± 4.16) % | 2.46 | 1.02 |  | 5.68 | 
6 | CCCCCc1cc(O)c2c(c1)OC1(C)CCC3C1C2C3(C)C (centres unmarked) [CBL, cannabicyclol] | 96.12 | 8.75 | 96.1 µM |  | > 80 |  | 54.53 | 1.55 |  | 5.67 | 
7 | CCCCCc1cc(O)c2c(c1)OC(C)(C)c1ccc(C)cc1-2 [CBN, cannabinol] | 100.00 | 100 |  | 100 |  |  | 39.18 | 1.39 |  |  | 34.87 (± 3.08) %
8 | CCCCCc1cc(O)c2c(c1)OC(C)(C)[C@@H]1CCC(C)=C[C@@H]21 [THC, tetrahydrocannabinol, reference compound] | 20.30 | 1.85 | ~20.3 µM and 20.3 µM | 38.64 |  |  | 72.94 | 1.73 | 16.2 |  | 
9 | COc1cc(O)c2c(c1)O[C@H](c1ccccc1)CC2=O [pinostrobin, reference compound] |  |  |  |  |  | 100% |  |  |  |  | 
10 | O=c1c(O)c(-c2ccc(O)c(O)c2)oc2cc(O)cc(O)c12 [quercetin, reference compound] |  |  | ~11 µM and 11 µM |  |  |  |  |  |  |  | 
